This note sets out measurements from US6426349B1, “Substituted condensation products of N-benzyl-3-indenylacetamides with heterocyclic aldehydes for neoplasia” (Cell Pathway and the University of Arizona, priority 1997, dated 2002).

Where a name gives a salt, the structure may show the parent alone.

For assay [1], the system named is SW-480 colon adenocarcinoma cells. Kind of assay: Apoptosis by DNA fragmentation (Cell Death Detection ELISA plus). The class given is cell-based, human. The conditions noted are these: for DNA Fragmentation FS (100 μM): fold stimulation FS=ODmax/ODveh; for DNA Fragmentation FS (100 μM) / EC50: SW-480 cells, 48 hrs; for Apoptosis Level (Mean OD Value ± SD): DNA fragmentation, SW-480. As for the experimental part:
Apoptosis was also measured based on the amount of fragmented DNA contained in cell lysates. Briefly, SW-480 colon adenocarcinoma cells were plated in 96-well microtitre plates (“MTP”) at a density of 10 K cells/well in 180 μl and were incubated for 24 hrs. Cells were then treated with 20 μl aliquots of appropriately diluted compound, and allowed to incubate for an additional 48 hrs.
After the incubation, samples were prepared according to the following steps. The MTP was centrifuged (15 min., 1000 rpm) and the supernatant was carefully removed by fast inversion of the MTP. The cell pellets in each well were resuspended in 200 μl lysis buffer and incubated for 45 min. at room temperature to lyse the cells. The lysates were then centrifuged (15 min., 1000 rpm) and 20 μl aliquots of the supernatant (=cytoplasmic fraction) were transferred into the streptavidin coated MTP for analysis. Care was taken not to shake the lysed pellets in the MTP (=cell nucleii containing high molecular weight, unfragmented DNA). Samples were analyzed immediately, because storage at 4C or −20C reduces the ELISA-signals.
Samples were then processed according to a DNA fragmentation assay protocol, and dose-response curves were generated based on optical density readings. Quantification of DNA was done by a commercially available photometric enzyme-immunoassay manufactured by Mannheim-Boehringer under the name “Cell Death Detection ELISA^plus”. The assay is based on a quantitative sandwich-enzyme-immunoassay-principle using mouse monoclonal antibodies directed against DNA and histones, respectively. This allows the specific determination of mono and oligonucleosomes in the cytoplasmatic fraction of cell lysates. In brief, the assay procedure is as follows. The sample (cell-lysate, serum, culture-supematant etc.) is placed into a streptavidin-coated MTP. Subsequently, a mixture of anti-histone-biotin and anti-DNA-POD is followed by incubation for 2 hours. During the incubation period, the anti-histone antibody binds to the histone-component of the nucleosomes and simultaneously fixes the immunocomplex to the streptavidin-coated MTP via its biotinylation. Additionally, the anti-DNA-POD antibody reacts with the DNA component of the nucleosomes. After removal of unbound antibodies by a washing step, the amount of nucleosomes is quantified by the POD retained in the immunocomplex. POD is determined photometrically with ABTS® (2,2′-Azino-di[3-ethylbenzthiazolin-sulfonat])* as substrate.
Fold stimulation (FS=ODmax/ODveh), an indicator of apoptotic response, was determined for each compound tested. EC50 values were determined either specifically by data analysis software, or by estimates based on the effective concentration range of each compound (ECR=min. effective dose-min. dose to peak effect). These FS and EC50 values for the tested compounds are listed above in Table 4.
In addition, using the DNA fragmentation test above, a dose response for the compound of Example 1 was obtained.

The subject of assay [2] is human colon carcinoma cell line, SW-480. Kind of assay: Sulforhodamine B (SRB) tumor cell growth inhibition assay. The assay is classed as cell-based. The settings on record: SW480, 144 h, SW-480 cell line, six days continuous exposure. As for the experimental part:
The compound of Example 1 was assayed for its growth inhibitory activity on the human colon carcinoma cell line, SW-480 obtained from ATCC (Rockville, Md.), to ascertain the degree of growth inhibition. Growth inhibition of this cell line is indicative of a benefit on precancerous lesions and neoplasms. The cell line and growth assay employed for such experiments are well characterized, and are used to evaluate the anti-neoplastic properties of NSAIDs. The assay is used by the United States National Cancer Institute in its screening program for new anti-cancer drugs.
Drug stock solutions were made in 100% DMSO and were then diluted with RPMI media for cell culture testing. All drug solutions were prepared fresh on the day of testing. The cultured cells were obtained at passage #99 and grown in RPMI media supplemented with 5% fetal calf serum, and 2 mM glutamine, 100 U/ml penicillin, […] streptomycin, and 0.25 μg/ml amphotericin. The cultures were maintained in a humidified atmosphere of 95% air and 5% CO2 at 37° C. […]
Tumor cell growth inhibition was assessed using the Sulforhodamine B (SRB) protein binding assay. […] The dye was then solubilized, and the optical density of the resulting solution was determined on a 96-well plate reader. […]
For each experiment, an IC50 value was determined and used for comparative purposes. […]

The target of assay [3] is T1, purified cyclooxygenase Type I (Ovis aries, UniProt P05979).
T1 construct: The COX was purified from ram seminal vesicles; from tissue; host or cells: ram seminal vesicles
T1 sequence (P05979 25-600): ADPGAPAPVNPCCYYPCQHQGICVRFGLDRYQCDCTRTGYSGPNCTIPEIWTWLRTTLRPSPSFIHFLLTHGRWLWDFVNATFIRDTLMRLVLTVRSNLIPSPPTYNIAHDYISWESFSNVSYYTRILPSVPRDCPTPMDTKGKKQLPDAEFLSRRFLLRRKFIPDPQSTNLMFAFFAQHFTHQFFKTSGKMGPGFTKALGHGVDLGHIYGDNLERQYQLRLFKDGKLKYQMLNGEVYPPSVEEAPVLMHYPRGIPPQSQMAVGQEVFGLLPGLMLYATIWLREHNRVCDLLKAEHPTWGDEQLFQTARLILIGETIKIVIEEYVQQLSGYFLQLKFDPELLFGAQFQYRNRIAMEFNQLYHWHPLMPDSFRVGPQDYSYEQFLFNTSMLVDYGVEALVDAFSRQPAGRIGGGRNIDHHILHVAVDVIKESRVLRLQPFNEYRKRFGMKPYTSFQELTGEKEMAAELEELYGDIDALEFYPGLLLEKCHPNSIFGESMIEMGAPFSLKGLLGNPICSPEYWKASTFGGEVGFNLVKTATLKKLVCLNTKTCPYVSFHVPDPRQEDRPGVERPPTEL
Kind of assay: Cyclooxygenase (COX) inhibition, purified enzyme. The settings on record: purified COX from ram seminal vesicles. The assay is classed as biochemical. As for the experimental part: COX catalyzes the formation of prostaglandins and thromboxane by the oxidative metabolism of arachidonic acid. The compound of Example 1 of this invention, as well as a positive control, (sulindac sulfide) were evaluated to determine whether they inhibited purified cyclooxygenase Type I (see Table 3 below).
The compounds of this invention were evaluated for inhibitory effects on purified COX. The COX was purified from ram seminal vesicles, as described by Boopathy, R. and Balasubramanian, J., 239:371-377, 1988. COX activity was assayed as described by Evans, A. T., et al., “Actions of Cannabis Constituents on Enzymes Of Arachidonate Metabolism Anti-Inflammatory Potential,” Biochem. Pharmacol., 36:2035-2037, 1987. Briefly, purified COX was incubated with arachidonic acid (100 μM) for 2.0 min at 37° C. in the presence or absence of test compounds. The assay was terminated by the addition of TCA, and COX activity was determined by absorbance at 530 nm.

Assay [4] has as its system HT-29 human colon carcinoma cells. Kind of assay: Apoptosis by morphology (acridine orange/ethidium bromide fluorescent microscopy). The assay is classed as cell-based. The conditions noted are these: HT-29 cells. As for the experimental part: Apoptosis was measured using an assay of cell death based on morphological characteristics of apoptotic cells (i.e., condensed chromatin). Drug preparation and cell culture conditions were the same as for the SRB assay described above, except that HT-29 human colon carcinoma cells were used. Confluent cultures were established in 12.5 cm^2 flasks by plating 0.5×10^6 cells/flask. The cultures were assayed for apoptosis by fluorescent microscopy following labeling with acridine orange and ethidium bromide. Floating and attached cells were collected by trypsinization and washed three times in PBS. One ml aliquots were centrifuged (3 g). The pellet was resuspended in 25 μl media and 1 μl of a dye mixture containing 100 μg/ml acridine orange and 100 μg/ml ethidium bromide prepared in PBS and mixed gently. Ten μl of the mixture was placed on a microscope slide and covered with a 22 mm^2 coverslip, was examined with 40x dry objectives under epillumination by filter combination.
An observer blinded in regard to the identity of the samples scored at least 100 cells per sample. Apoptotic cells were identified by nuclear condensation of chromatin stained by the acridine orange or ethidium bromide.

Broadly, the EC50 is the midpoint of the concentration-response curve. A word on the IC50: it is the concentration needed to halve the response being measured. The term inhibition denotes the percentage by which the read-out fell short of the control. Lower therefore signals a response near the control. Take `CC1=C(CC(=O)NCc2ccccc2)c2cc(F)ccc2/C1=C\c1ccncc1` [Example 1, (Z)-5-Fluoro-2-Methyl-(4-Pyridinylidene)-3-(N-Benzyl)-Indenylacetamide]: the “DNA Fragmentation FS (100 μM)” value in assay [1] was 4.2. In addition, the EC50 in assay [1] (Homo sapiens, SW480) turned out to be 29 µM. The “Apoptosis Level (Mean OD Value ± SD)” value in assay [1] (dose 0.5 μM) was found to be 0.186 ± 0.008; in assay [1] (dose 1.0 μM) it was 0.207 ± 0.061; in assay [1] (dose 5.0 μM), 0.208 ± 0.073; in assay [1] (dose 10 μM), 0.296 ± 0.050; in assay [1] (dose 50 μM), 0.500 ± 0.048; in assay [1] (dose 100 μM), 0.633 ± 0.053. Besides, the “Apoptosis Level (Mean OD Value ± SD)” value in assay [1] (dose 500 μM) is reported as 0.659 ± 0.012. The IC50 in assay [2] is 724 nM. For the same molecule, the inhibition at 100 µM in assay [3] was < 25%. The “Morphology % Apoptotic Cells (1 μM)” value in assay [4] is 88%.

Take `CC1=C(CC(=O)NCc2ccccc2)c2cc(F)ccc2/C1=C\c1ccccn1` [Example 3, (Z)-5-Fluoro-2-Methyl-(2-Pyridinylidene)-3-(N-Benzyl)-Indenylacetamide]: the “DNA Fragmentation FS (100 μM)” value in assay [1] is on record as 8.5.

With `CC1=C(CC(=O)NCc2ccccc2)c2cc(F)ccc2/C1=C\c1cccnc1` [Example 2, (Z)-5-Fluoro-2-Methyl-(3-Pyridinylidene)-3-(N-Benzyl)-Indenylacetamide], the “DNA Fragmentation FS (100 μM)” value in assay [1] is 5.4.

With `CC1=C(CC(=O)NCc2ccccc2)c2cc(F)ccc2/C1=C\c1ccnc2ccccc12` [Example 4, (Z)-5-Fluoro-2-Methyl-(4-Quinolinylidene)-3-(N-Benzyl)-Indenylacetamide], the “DNA Fragmentation FS (100 μM)” value in assay [1] was 3.9.

Regarding `CC1=C(CC(=O)NCc2ccccc2)c2cc(F)ccc2/C1=C\c1ccncc1` [Example 38, (Z)-5-Fluoro-2-Methyl-(4-Pyridylidene)-3-(N-Benzyl) Indenylacetamide Hydrochloride], the EC50 in assay [1] was 15 µM.
